We go through 24 compounds from PubChem BioAssay (NCI).

Among the test systems are A549 NSCLC; K-562 leukemia; BT-549 breast; CCRF-CEM leukemia; HCT-116 colon; HCC-2998 colon.
What all share (experiment): NCI anticancer screen, dose series, 48 h

The structures appear in SMILES notation.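 Cells were grown in 96-well plates and exposed to each compound for 48 hours at five concentrations; endpoints were interpolated linearly between bracketing concentrations, or set to the highest concentration if not reached. GI50 = concentration required for 50% inhibition of growth. TGI marks complete inhibition of growth.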 Bounds are passed on as bounds.

With `Cc1cn2cc(-c3cccs3)nc2s1`, the TGI with A549 NSCLC, in the test with K-562 leukemia, in the test with BT-549 breast, in the test on CCRF-CEM leukemia, in the test on HCT-116 colon and in the test with HCC-2998 colon was over 100 µM in each case.

With `COC(=O)c1c(O)c(C#N)c2[nH]c3ccccc3n2c1=O`, the TGI with A549 NSCLC, in the test on K-562 leukemia, in the test with BT-549 breast, in the test on CCRF-CEM leukemia, in the test on HCT-116 colon and in the test on HCC-2998 colon was over 100 µM in each case.

As to `COc1cccc(OC)c1C1ON=C(c2ccccc2)N1C12CC3CC(CC(C3)C1)C2` (stereo unspecified), the TGI with A549 NSCLC, in the test on K-562 leukemia, in the test with BT-549 breast, in the test with HCT-116 colon and with HCC-2998 colon was over 100 µM in each case.

As for `CC(C)[Si](OC12CCC(CC1O)CC2CO)(C(C)C)C(C)C` (stereo unspecified), the TGI was 22.1 µM with A549 NSCLC, over 100 µM in the test on K-562 leukemia, 31.6 µM in the test on CCRF-CEM leukemia and 20.7 µM with HCT-116 colon.

For the compound `Brc1ccc(C2=NCSC(c3ccc(Br)cc3)=N2)cc1`, the TGI with A549 NSCLC was over 100 µM; with K-562 leukemia it was over 100 µM; in the test with BT-549 breast it was over 100 µM; in the test with HCT-116 colon, 59.2 µM; in the test with HCC-2998 colon, 51 µM.

Turning to `N=C(N)SCc1ccc2c(c1)S(=O)(=O)c1ccccc1O2`, the TGI in the test with A549 NSCLC was 39.8 µM; in the test on K-562 leukemia, over 100 µM; with CCRF-CEM leukemia, over 100 µM; in the test on HCT-116 colon, 63.1 µM; with HCC-2998 colon it was 56.8 µM.

For the compound `O=C1C=CC2(C=C1)O[C@H](COCc1ccccc1)[C@@H](COCc1ccccc1)O2`, the TGI in the test on A549 NSCLC was 39 µM; in the test on K-562 leukemia, over 100 µM; in the test on BT-549 breast, 2.37 µM; with HCT-116 colon it was 0.582 µM.

Turning to `Cc1ccc(S(=O)(=O)n2cc(/C=C/C#N)c(-c3cn(S(=O)(=O)c4ccc(C)cc4)cc3-c3cn(S(=O)(=O)c4ccc(C)cc4)cc3/C=C/C#N)c2)cc1`, the TGI in the test with K-562 leukemia, in the test with BT-549 breast and with HCT-116 colon was over 100 µM in each case.

For the compound `C/C(=N/NC(=O)c1ccncc1)C(F)(F)F`, the TGI with K-562 leukemia, in the test with BT-549 breast, in the test with HCT-116 colon and with HCC-2998 colon was over 100 µM in each case.

Take `COCN1C(=O)[C@@H]2CCCN2C(=O)c2cc(OC)c(Cc3ccccc3)cc21`: the TGI in the test with A549 NSCLC, with BT-549 breast and with HCT-116 colon was over 100 µM in each case.

Regarding `CCCN(CCC)C(=S)Sc1nc(C)nc(N2CCN(c3nc(C)nc(SC(=S)N(CCC)CCC)c3[N+](=O)[O-])CC2)c1[N+](=O)[O-]`, the TGI in the test on A549 NSCLC was over 84.5 µM; in the test with BT-549 breast, 26.9 µM; in the test on CCRF-CEM leukemia, 8.55 µM; with HCT-116 colon, 16.9 µM; in the test on HCC-2998 colon, 43.6 µM.

For the compound `COC(=O)c1cc2ccc(O)c(O)c2cn1`, the TGI in the test with A549 NSCLC was 63.1 µM; with K-562 leukemia, 8.16 µM; with CCRF-CEM leukemia it was over 100 µM; in the test with HCT-116 colon, 29.2 µM; in the test with HCC-2998 colon, over 100 µM. For the same compound, the GI50 with CCRF-CEM leukemia is 4.62 µM; with HCC-2998 colon it was over 100 µM.

With `C=CCOC(=O)Cn1cnc2c(N)ncnc21`, the TGI in the test on A549 NSCLC, in the test on K-562 leukemia, in the test with CCRF-CEM leukemia, in the test with HCT-116 colon and in the test on HCC-2998 colon was over 100 µM throughout.

For the compound `CCOC(=O)c1nc2ccccc2nc1Oc1cc(OC)cc(OC)c1`, the TGI in the test on A549 NSCLC, with K-562 leukemia, in the test with BT-549 breast, in the test on CCRF-CEM leukemia and in the test on HCT-116 colon was over 100 µM each time.

Regarding `CCOc1ccc(/C=C2\N=C(c3ccccc3)OC2=O)cc1`, the TGI with A549 NSCLC, with K-562 leukemia, in the test with BT-549 breast, in the test on CCRF-CEM leukemia and in the test with HCC-2998 colon was over 100 µM each time.

On to `NC(Cc1ccc(CP(=O)(O)O)cc1)C(=O)O` (stereo unspecified), for which the TGI in the test with A549 NSCLC, in the test with K-562 leukemia, in the test on CCRF-CEM leukemia, in the test with HCT-116 colon and with HCC-2998 colon was over 100 µM throughout.

With `COCCN(C(=O)c1ccccc1)C1CCC2(SCCS2)c2[nH]c3ccccc3c21` (stereo unspecified), the TGI in the test on A549 NSCLC is 68.2 µM; in the test on K-562 leukemia, over 100 µM; with CCRF-CEM leukemia, over 100 µM; in the test on HCT-116 colon, over 100 µM; in the test with HCC-2998 colon, over 100 µM.

Consider `O=C1CSCC(=O)Nc2ccccc2N1`, for which the TGI in the test with A549 NSCLC, in the test on K-562 leukemia, in the test on BT-549 breast, in the test with CCRF-CEM leukemia and in the test with HCT-116 colon was over 100 µM throughout.

`N#CC(C#N)=c1c(=O)c2c3ccccc3cc3cccc1c32`: the TGI with A549 NSCLC, in the test with BT-549 breast, in the test on CCRF-CEM leukemia, in the test with HCT-116 colon and in the test with HCC-2998 colon was over 100 µM throughout.

Regarding `O=C(CCC(=O)c1ccsc1)c1ccsc1`, the TGI in the test on A549 NSCLC, in the test with BT-549 breast, with HCT-116 colon and in the test with HCC-2998 colon was over 100 µM throughout.

Consider `CC(=O)N1C=Cc2c(c(C)c3c([nH]c4ccccc43)c2C)C1`, for which the TGI with A549 NSCLC was 24.2 µM; in the test with K-562 leukemia, over 100 µM; in the test with BT-549 breast, 14.6 µM; in the test with CCRF-CEM leukemia, over 100 µM; in the test on HCT-116 colon, 3.21 µM.

Take `COc1cc2nc(-c3cccs3)nc(Nc3cccc([N+](=O)[O-])c3)c2cc1OC`: the TGI in the test with A549 NSCLC is 53.8 µM; in the test on K-562 leukemia it was over 100 µM; in the test with BT-549 breast it was 39.7 µM; with CCRF-CEM leukemia, over 100 µM; in the test with HCT-116 colon, 32.8 µM.

As for `COC(=O)/C=C1\SC2(OC1=Nc1ccccc1)C1CC3CC(C1)CC2C3` (stereo unspecified), the TGI in the test on A549 NSCLC, in the test with K-562 leukemia, with BT-549 breast, with CCRF-CEM leukemia and with HCT-116 colon was over 100 µM each time.

Take `CC(C)(C)C(=O)/C=C(\OB(F)F)C(C)(C)C`: the TGI in the test with A549 NSCLC, in the test with K-562 leukemia, with CCRF-CEM leukemia, in the test with HCT-116 colon and in the test on HCC-2998 colon was over 100 µM throughout.
